Some test systems named below: MOLT-4; OVCAR-3; LOX IMVI; NCI-H522; A549; HCT-116; U-251; HOP-92; CCRF-CEM; M14; KM12; Hs-578T; UACC-257; HT-29; NCI-H460; UO-31; SF-295; HCC 2998; A498.
Assay in all cases: NCI tumour cell line growth inhibition, 48 h

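Results reflect a 48-hour exposure of cells in 96-well plates to compound at five concentrations. GI50 = concentration required for 50% inhibition of growth.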 Calls of active or inactive are those of the source. Cut-off read from the data, not from the text of the source: active = GI50 up to about 1.1 µM and inactive = higher. Where only a bound is given, the exact number is not on record here.

The values below come from ChEMBL document CHEMBL1201862, “PubChem BioAssay data set” (2004).

`COC(=O)C1=C(C)NC(=S)NC1c1ccc(N(CCCl)CCCl)cc1Cl` (configuration not stated): the GI50 in the assay on MOLT-4 was 4.55 µM (inactive); with OVCAR-3, 22.6 µM (inactive); with LOX IMVI it was 24.8 µM (inactive); with NCI-H522, 31.8 µM (inactive); in the assay on A549, 8.2 µM (inactive); in the assay with HCT-116 it was 34 µM (inactive). Also, the GI50 was 53.6 µM (inactive) in the assay with U-251; 74.8 µM (inactive) in the assay on HOP-92; 0.824 µM (active) in the assay with CCRF-CEM; 32.5 µM (inactive) in the assay with M14; 19.6 µM (inactive) in the assay with KM12; > 22 µM (inactive) in the assay with Hs-578T. In addition, the GI50 with UACC-257 is 2.44 µM (inactive); in the assay on HT-29, 32.5 µM (inactive); in the assay on NCI-H460, 22 µM (inactive); in the assay on UO-31 it was 35.8 µM (inactive); in the assay with SF-295 it was 19.4 µM (inactive).
As to `CCOC(=O)c1cc2cc(C)cc(C(=O)c3ccc([N+](=O)[O-])cc3)c2[nH]1`, the GI50 in the assay with MOLT-4, in the assay on OVCAR-3, with HCC 2998, with LOX IMVI, in the assay on NCI-H522 and in the assay on A549 was > 100 µM (inactive) each time. Besides, the GI50 is > 100 µM (inactive) in the assay with HCT-116; 26.6 µM (inactive) in the assay with U-251; 93.8 µM (inactive) in the assay with HOP-92; > 10 µM (inactive) in the assay on CCRF-CEM; > 100 µM (inactive) in the assay with M14; > 100 µM (inactive) in the assay on A498. The GI50 with KM12 was > 100 µM (inactive); with Hs-578T it was 41.2 µM (inactive); in the assay on UACC-257, > 100 µM (inactive); with HT-29, > 100 µM (inactive); in the assay on NCI-H460, > 100 µM (inactive); with UO-31 it was > 100 µM (inactive). The GI50 in the assay with SF-295 was > 100 µM (inactive).
For the compound `O=C1Nc2ccccc2C(=O)/C1=C/NC(=S)NC1CCCCC1`, the GI50 in the assay on MOLT-4, with OVCAR-3, with HCC 2998, with LOX IMVI, in the assay with NCI-H522 and in the assay with A549 was > 100 µM (inactive) throughout. The GI50 in the assay on HCT-116, in the assay on U-251, with HOP-92, with CCRF-CEM, in the assay on M14 and in the assay with A498 was > 100 µM (inactive) throughout. The GI50 with KM12, in the assay on Hs-578T, in the assay with UACC-257, in the assay with HT-29, in the assay with NCI-H460 and with UO-31 was > 100 µM (inactive) in each case. The GI50 in the assay with SF-295 is > 100 µM (inactive).
As to `N#Cc1nc(C#N)n(C(=O)c2ccccc2)c1NC(=O)c1ccccc1`, the GI50 with MOLT-4, with OVCAR-3, with HCC 2998, with LOX IMVI, in the assay on NCI-H522 and with A549 was > 100 µM (inactive) each time. Further, the GI50 in the assay with HCT-116, in the assay with U-251, in the assay with HOP-92, in the assay with CCRF-CEM, with M14 and with A498 was > 100 µM (inactive) throughout. The GI50 in the assay with KM12, in the assay with Hs-578T, in the assay on UACC-257, in the assay on HT-29, in the assay on NCI-H460 and with UO-31 was > 100 µM (inactive) throughout. Further, the GI50 with SF-295 was > 100 µM (inactive).
Turning to `N#CC1=C(N)OC2=C(CCCc3ccc([N+](=O)[O-])cc32)C1c1ccc(Cl)cc1` (configuration not stated), the GI50 in the assay with MOLT-4 was 3.21 µM (inactive); with OVCAR-3, 6.34 µM (inactive); in the assay with HCC 2998 it was 8.02 µM (inactive); in the assay with LOX IMVI, 4.6 µM (inactive); in the assay with NCI-H522 it was 6.41 µM (inactive); in the assay on A549, 6.7 µM (inactive). Further, the GI50 is 3.3 µM (inactive) in the assay with HCT-116; 4.57 µM (inactive) in the assay with U-251; 37 µM (inactive) with HOP-92; 4.39 µM (inactive) with CCRF-CEM; 16.4 µM (inactive) in the assay on M14; 5.73 µM (inactive) with A498. Further, the GI50 in the assay with KM12 was 5.58 µM (inactive); in the assay with Hs-578T, 17.1 µM (inactive); with UACC-257, 6.08 µM (inactive); in the assay with HT-29, 4.1 µM (inactive); with NCI-H460, 3.83 µM (inactive); in the assay with UO-31 it was 3.3 µM (inactive). The GI50 in the assay on SF-295 is 11 µM (inactive).
In the case of `CCCNC(=O)N1CC(CN2CCN(c3ccccc3)CC2)O/C1=N/C(=O)Nc1ccccc1` (configuration not stated), the GI50 in the assay on MOLT-4 is > 100 µM (inactive); with HCC 2998, > 100 µM (inactive); in the assay on LOX IMVI it was 67.8 µM (inactive); in the assay on NCI-H522, 40.7 µM (inactive); in the assay with A549, 63.4 µM (inactive); with HCT-116, > 100 µM (inactive). The GI50 with U-251 was > 100 µM (inactive); in the assay with HOP-92, 89.3 µM (inactive); in the assay with M14 it was 65.9 µM (inactive); in the assay with A498 it was > 100 µM (inactive); in the assay with KM12, > 100 µM (inactive); in the assay with Hs-578T it was > 100 µM (inactive). The GI50 was 46.8 µM (inactive) in the assay with UACC-257; 68.7 µM (inactive) in the assay with HT-29; > 100 µM (inactive) in the assay on NCI-H460; 30.5 µM (inactive) in the assay on UO-31; > 100 µM (inactive) in the assay on SF-295.
Regarding `Cc1cs/c(=N/c2ccccc2)n1CCC(O)(P(=O)(O)O)P(=O)(O)O`, the GI50 in the assay on OVCAR-3, with HCC 2998, in the assay on LOX IMVI, in the assay on NCI-H522, in the assay on A549 and in the assay with HCT-116 was > 100 µM (inactive) throughout. For the same compound, the GI50 in the assay on M14 is > 100 µM (inactive); with KM12, > 100 µM (inactive); with Hs-578T, > 100 µM (inactive); with UACC-257, > 100 µM (inactive); in the assay on HT-29, > 100 µM (inactive); in the assay with NCI-H460, 90.6 µM (inactive). The GI50 in the assay with UO-31 and in the assay on SF-295 was > 100 µM (inactive) each time.
As to `CC(C)(Cl)C(Br)CCC(C)(Br)C(Br)CBr` (configuration not stated), the GI50 in the assay with MOLT-4 was 19.6 µM (inactive); in the assay on OVCAR-3, 15.9 µM (inactive); in the assay on HCC 2998, 13.1 µM (inactive); with NCI-H522, 13 µM (inactive); in the assay with A549 it was 30.1 µM (inactive); in the assay on HCT-116 it was 16 µM (inactive). For the same compound, the GI50 in the assay with U-251 was 16.5 µM (inactive); in the assay on HOP-92, 21.5 µM (inactive); in the assay with CCRF-CEM, 10.5 µM (inactive); with M14, 17.7 µM (inactive); with A498 it was 19.3 µM (inactive); in the assay on KM12 it was 17.8 µM (inactive). The GI50 is 21.5 µM (inactive) in the assay on Hs-578T; 18.7 µM (inactive) in the assay on UACC-257; 15.8 µM (inactive) in the assay on HT-29; 15.3 µM (inactive) in the assay with NCI-H460; 19 µM (inactive) in the assay with UO-31; 17.7 µM (inactive) with SF-295.
